Reference: patent USRE40086E1, “Method for treating bacterial infection with novel 7-substituted-9-substituted amino 6-demethyl-6-deoxytetracyclines” (Wyeth Holdings Corporation, priority 1991, dated 2008)
Where a name gives a salt, the structure may show the parent alone. Read-outs that look alike come from different tables or passages of the source.

Experiments:
[1] = test system: Streptococcus pyogenes; assay: MIC vs recent clinical and agricultural isolates (Table V, KK); format: cell-based; settings: [10] tested
[2] = test system: S. aureus SMITH (sens); assay: In vivo antibacterial evaluation, acute lethal infection in mice; settings: Intraveneous
[3] = test system: E. coli J3272 TetC; assay: MIC, agar dilution (Table IA); format: cell-based; settings: unit assumed
[4] = test system: Clostridium perfringens; format: cell-based; settings: [16] tested
[5] = test system: Salmonella spp. (Clinical); format: cell-based; settings: [11] tested
[6] = test system: Haemophilus influenzae; assay: MIC vs recent clinical and agricultural isolates (Table V, KK); format: cell-based; settings: [15] tested
[7] = test system: E. coli BAJ9003; assay: MIC, agar dilution (Table IA); format: cell-based; settings: unit assumed
[8] = test system: Staphylococcus Coagulase-negative, methicillin-susceptible; assay: MIC vs recent clinical and agricultural isolates (Table V, KK); format: cell-based; settings: [16] tested
[9] = test system: S. aureus IVES 2943 (meth. resistant); assay: MIC, agar dilution; format: cell-based; settings: S. aureus IVES 2943; Table IA; unit assumed
[10] = test system: Salmonella cholerasuis (Agricultural); assay: MIC vs recent clinical and agricultural isolates (Table V, KK); format: cell-based; settings: [15] tested
[11] = test system: S. aureus Smith (Sensitive); assay: MIC, agar dilution; format: cell-based
[12] = test system: Enterococcus faecium; assay: MIC vs recent clinical and agricultural isolates (Table V, KK); format: cell-based; settings: [10] tested
[13] = test system: S. aureus NEMC 8769/89-4; assay: MIC, agar dilution (Table IA); format: cell-based; settings: unit assumed
[14] = test system: S. aureus IVES 1983 (meth. resistant); assay: MIC, agar dilution; format: cell-based; settings: S. aureus IVES 1983; Table IA; unit assumed
[15] = test system: E. coli #311 (MP); assay: MIC, agar dilution (Table IA); format: cell-based; settings: unit assumed
[16] = test system: E. coli PRP1 TetA; assay: MIC, agar dilution (Table IA); format: cell-based; settings: unit assumed
[17] = test system: X. maltophilia NEMC 87210; assay: MIC, agar dilution (Table IA); format: cell-based; settings: unit assumed
[18] = test system: E. coli J3272 Tet sens.; assay: MIC, agar dilution (Table IA); format: cell-based; settings: unit assumed
[19] = test system: E. coli UBMS 89-2 (Sensitive); assay: MIC, agar dilution; format: cell-based
[20] = test system: Providencia spp.; assay: MIC vs recent clinical and agricultural isolates (Table V, KK); format: cell-based; settings: [13] tested
[21] = test system: E. coli UBMS 90-5; assay: MIC, agar dilution (Table IA); format: cell-based; settings: unit assumed
[22] = test system: S. mariescens FDOR 8733; assay: MIC, agar dilution (Table IA); format: cell-based; settings: unit assumed
[23] = test system: S. aureus ROSE (MP); assay: MIC, agar dilution (Table IA); format: cell-based; settings: unit assumed
[24] = test system: S. aureus SMITH (sens); assay: In vivo antibacterial evaluation, acute lethal infection in mice
From the text: In Vivo Antibacterial Evaluation (Table VII)

[25] = test system: Enterobacter cloacae; assay: MIC vs recent clinical and agricultural isolates (Table V, KK); format: cell-based; settings: [10] tested
[26] = test system: TetM S30 extract, derivative of E. coli MRE600 containing the tetM determinant; assay: E. coli in vitro transcription and protein translation, 35S-methionine incorporation (Table VIII)
[27] = test system: Ps. acruginosa ATCC 27853; assay: MIC, agar dilution (Table IA); format: cell-based; settings: unit assumed
[28] = test system: Wild Type S30 extract, E. coli strain MRE600 (tetracycline sensitive); assay: E. coli in vitro transcription and protein translation, 35S-methionine incorporation (Table VIII)
[29] = test system: E. coli J2175; assay: MIC, agar dilution (Table IA); format: cell-based; settings: unit assumed
[30] = test system: Enterococcus faecium; assay: MIC against clinical isolates (Table V, A and O); format: cell-based; settings: Enterococcus faecium clinical isolates, (11) tested
[31] = test system: E. faecalis UBMS 90-6 (tetM); assay: MIC, agar dilution; format: cell-based; settings: Enterococcus faecalis
[32] = test system: Enterococcus faecalis; assay: MIC against clinical isolates (Table V, A and O); format: cell-based; settings: Enterococcus faecalis clinical isolates, (14) tested
[33] = test system: Neisseria gonorrhoeae; assay: MIC against clinical isolates (Table V, A and O); format: cell-based; settings: Neisseria gonorrhoeae clinical isolates, (9) tested
[34] = test system: E. coli UBMS 88-2 (Sensitive); assay: MIC, agar dilution; format: cell-based; settings: Escherichia coli; E. coli UBMS 88-2 (Sensitive); read-out: MIC
[35] = test system: N. gonorrhoeae 6418 (tetM); assay: MIC, agar dilution; format: cell-based; settings: Neisseria gonorrhoeae
[36] = test system: E. faecalis UBMS 90-7 (tetM); assay: MIC, agar dilution; format: cell-based; settings: Enterococcus faecalis
[37] = test system: Bacteroides spp.; assay: MIC against clinical isolates (Table V, A and O); format: cell-based; settings: Bacteroides spp. clinical isolates, (15) tested
[38] = test system: Escherichia coli; assay: MIC against clinical isolates (Table V, A and O); format: cell-based; settings: Escherichia coli clinical isolates, (10) tested
[39] = test system: Haemophilus influenzae; assay: MIC against clinical isolates (Table V, A and O); format: cell-based; settings: (18) tested

With `CN(C)CC(=O)Nc1cc(N(C)C)c2c(c1O)C(=O)C1=C(O)[C@]3(O)C(=O)C(C(N)=O)=C(O)[C@@H](N(C)C)C3CC1C2.Cl.Cl` (stereo partly drawn) [KK, [4S-(4alpha,12aalpha)]-4,7-Bis(dimethylamino)-9-[[(dimethylamino)acetyl]amino]-1,4,4a,5,5a,6,11,12a-octahydro-3,10,12,12a-tetrahydroxy-1,11-dioxo-2-naphthacenecarboxamide dihydrochloride] the “MIC (range over isolates)” value [1] was 0.06 to 0.12 µg/mL, the ED50 [2] was 0.68 mg/kg and the Antibacterial activity (MIC) [3] was 1 µg/mL. The “MIC (range over isolates)” value [4] was 0.03 to 1 µg/mL, the “MIC (range over isolates)” value [5] was 0.25 to 0.5 µg/mL and the “MIC (range over isolates)” value [6] was 0.5 to 2 µg/mL. The Antibacterial activity (MIC) [7] was 0.03 µg/mL, the “MIC (range over isolates)” value [8] was 0.12 to 8 µg/mL and the Antibacterial activity (MIC) [9] was 1 µg/mL. For the same compound, the “MIC (range over isolates)” value [10] was 0.5 to 16 µg/mL, the Antibacterial activity (MIC) ([11]; S. aureus SMITH (MP), Table IA, unit assumed) was 0.06 µg/mL and the “MIC (range over isolates)” value [12] was 0.03 to 0.12 µg/mL. It also gave an Antibacterial activity (MIC) [13] of 0.06 µg/mL, an Antibacterial activity (MIC) [14] of 1 µg/mL and an Antibacterial activity (MIC) [15] of 0.25 µg/mL. The Antibacterial activity (MIC) [16] was 1 µg/mL, the Antibacterial activity (MIC) [17] was 0.25 µg/mL and the Antibacterial activity (MIC) [18] was 0.12 µg/mL. For the same compound, the Antibacterial activity (MIC) ([19]; E. coli UBMS 89-2 Tet Sens., Table IA, unit assumed) was 0.25 µg/mL, the “MIC (range over isolates)” value [20] was 2 to 8 µg/mL and the Antibacterial activity (MIC) [21] was 0.25 µg/mL. For the same compound, the Antibacterial activity (MIC) [22] was 2 µg/mL, the Antibacterial activity (MIC) [23] was 1 µg/mL and the ED50 ([24]; Oral) was 8 to 16 mg/kg. The “MIC (range over isolates)” value [25] was 0.5 to 1 µg/mL, the “% INHIBITION TetM S30” value ([26]; 0.03 mg/ml) was 75% and the “% INHIBITION TetM S30” value ([26]; 0.06 mg/ml) was 89%. The “% INHIBITION TetM S30” value ([26]; 0.5 mg/ml) was 96%, the “% INHIBITION TetM S30” value ([26]; 1.0 mg/ml) was 95% and the Antibacterial activity (MIC) [27] was 4 µg/mL. The “% INHIBITION Wild Type S30” value ([28]; 0.03 mg/ml) was 81%, the “% INHIBITION Wild Type S30” value ([28]; 0.06 mg/ml) was 82% and the “% INHIBITION Wild Type S30” value ([28]; 0.5 mg/ml) was 90%. The “% INHIBITION Wild Type S30” value ([28]; 1.0 mg/ml) was 92% and the Antibacterial activity (MIC) [29] was 0.25 µg/mL.

`CN(C)c1ccc(O)c2c1C[C@H]1C[C@H]3[C@H](N(C)C)C(O)=C(C(N)=O)C(=O)[C@@]3(O)C(O)=C1C2=O` [Compound O, 7-(Dimethylamino)-6-demethyl-6-deoxytetracycline hydrochloride (minocycline hydrochloride), reference compound] was tested, and the “MIC (range over isolates)” value [1] was 0.03 to 2 µg/mL, the “MIC Range” value [30] was <0.015 to 16.00 µg/mL and the MIC50 ([30]; read-out: MIC50) was 8 µg/mL. For the same compound, the MIC90 ([30]; read-out: MIC90) was 16 µg/mL, the MIC [31] was 8 µg/mL and the “MIC (range over isolates)” value [4] was >0.008 to 16 µg/mL. The “MIC (range over isolates)” value [6] was 0.5 to 2 µg/mL, the “MIC Range” value [32] was <0.015 to 16.00 µg/mL and the MIC50 ([32]; read-out: MIC50) was 4 µg/mL. The MIC90 ([32]; read-out: MIC90) was 16 µg/mL, the “MIC (range over isolates)” value [8] was 0.03 to 1 µg/mL and the MIC50 ([33]; read-out: MIC50) was 0.25 µg/mL. The MIC90 ([33]; read-out: MIC90) was > 32 µg/mL, the MIC ([11]; Staphylococcus aureus, S. aureus Smith (Sensitive), read-out: MIC) was ≤ 0.015 µg/mL and the “MIC (range over isolates)” value [12] was 0.03 to 16 µg/mL. For the same compound, the MIC [34] was 0.5 µg/mL, the MIC [35] was > 32 µg/mL and the MIC [36] was 8 µg/mL. For the same compound, the MIC ([19]; Escherichia coli, E. coli UBMS 89-2 (Sensitive), read-out: MIC) was 0.5 µg/mL, the “MIC Range” value [37] was >0.15 to 16.00 µg/mL and the MIC50 ([37]; read-out: MIC50) was 1 µg/mL. The MIC90 ([37]; read-out: MIC90) was 4 µg/mL, the “MIC Range” value [38] was 0.12 to 32.00 µg/mL and the MIC50 ([38]; read-out: MIC50) was 0.25 µg/mL. It also gave an MIC90 ([38]; read-out: MIC90) of 16 µg/mL, an ED50 ([24]; Staphylococcus aureus, Oral, read-out: ED50) of 0.74 mg/kg and an ED50 ([24]; Staphylococcus aureus, iv, Intraveneous, read-out: ED50) of 0.37 mg/kg. For the same compound, the “MIC (range over isolates)” value [25] was 0.25 to 4 µg/mL, the MIC50 [39] was 0.12 µg/mL and the MIC90 [39] was 0.25 µg/mL. For the same compound, the “MIC Range” value [39] was 0.06 to 0.25 µg/mL.
